Laboratory results reported in ChEMBL document CHEMBL6092192 (J Med Chem, 2024).

Legend:
SW620/AD300 [1] = assay: Cytotoxicity against multidrug resistant human SW620/AD300 cells assessed as survival rate at 4 uM measured after 72 hrs by MTT assay relative to control; type: functional; conditions: read-out: Survival
SW620/AD300 [2] = assay: Reversal of paclitaxel resistance in human SW620/AD300 cells assessed as reversal fold by measuring ratio of paclitaxel IC50 to paclitaxel IC50 in presence of test compound incubated for 72 hrs by MTT assay; type: functional
HEK293 [3] = assay: Cytotoxicity against HEK293 cells transfected with pcDNA3.1 measured after 72 hrs by MTT assay; type: functional, cell-based; conditions: Homo sapiens, HEK293, 72 h
SW-620 [4] = assay: Reversal of paclitaxel resistance in human SW620 cells assessed as reversal fold by measuring ratio of paclitaxel IC50 to paclitaxel IC50 in presence of test compound at 4 uM incubated for 72 hrs by MTT assay; type: functional
KB-C2 = assay: Cytotoxicity against human KB-C2 cells measured after 72 hrs by MTT assay; type: functional, cell-based; conditions: KB-C2, 72 h
HEK293 [5] = assay: Cytotoxicity against HEK293 cells harbouring ABCB1 measured after 72 hrs by MTT assay; type: functional, cell-based; conditions: Homo sapiens, HEK293, 72 h
SW-620 [6] = assay: Cytotoxicity against human SW620 cells measured after 72 hrs by MTT assay; type: functional, cell-based; conditions: SW-620, 72 h
KB 3-1 = assay: Cytotoxicity against human KB 3-1 cells measured after 72 hrs by MTT assay; type: functional, cell-based; conditions: KB 3-1, 72 h
SW620/AD300 [7] = assay: Cytotoxicity against multidrug resistant human SW620/AD300 cells measured after 72 hrs by MTT assay; type: functional, cell-based; conditions: SW620/AD300, 72 h

C#CCSc1nc2[nH]c3c(c(=O)n2n1)CCC3
viability at 4 µM (SW620/AD300 [1]): 96.9%
Ratio IC50 (SW620/AD300 [2]): 24

Cc1cc(=O)n2nccc2[nH]1
viability at 4 µM (SW620/AD300 [1]): 93.9%
Ratio IC50 (SW620/AD300 [2]): 2.81

Cc1cc(=O)n2nc(SCc3ccc(F)cc3)nc2[nH]1
viability at 4 µM (SW620/AD300 [1]): 99.4%
Ratio IC50 (SW620/AD300 [2]): 14.9

Cc1cc(=O)n2nc(SCc3csc4ccc(Cl)cc34)nc2[nH]1
viability at 4 µM (SW620/AD300 [1]): 94.6%
Ratio IC50 (SW620/AD300 [2]): 18

O=c1cc(-c2ccccc2)[nH]c2ncnn12
viability at 4 µM (SW620/AD300 [1]): 99%
Ratio IC50 (SW620/AD300 [2]): 1.03

O=c1c2c([nH]c3ncnn13)CSC2
viability at 4 µM (SW620/AD300 [1]): 97.7%
Ratio IC50 (SW620/AD300 [2]): 8

Cc1cc(=O)n2c(nc3ccccc32)[nH]1
viability at 4 µM (SW620/AD300 [1]): 96.2%
Ratio IC50 (SW620/AD300 [2]): 1.09

O=c1cc(C2CC2)[nH]c2ncnn12
viability at 4 µM (SW620/AD300 [1]): 92.5%
Ratio IC50 (SW620/AD300 [2]): 1.36

Cc1cc(=O)n2nc(SCc3ccc(Cl)cc3)nc2[nH]1
viability at 4 µM (SW620/AD300 [1]): 94.5%
Ratio IC50 (SW620/AD300 [2]): 13.94

Cc1cc(=O)n2nc(SCc3cccc4ccccc34)nc2[nH]1
viability at 4 µM (SW620/AD300 [1]): 97.8%
Ratio IC50 (SW620/AD300 [2]): 24.27

Cc1cc(=O)n2nc(SCc3ccc(Br)cc3)nc2[nH]1
viability at 4 µM (SW620/AD300 [1]): 94.9%
Ratio IC50 (SW620/AD300 [2]): 10.29

O=c1c2c([nH]c3ncnn13)CCCC2
viability at 4 µM (SW620/AD300 [1]): 94.7%
Ratio IC50 (SW620/AD300 [2]): 6.45

O=c1c2c([nH]c3ncnn13)CCCCC2
viability at 4 µM (SW620/AD300 [1]): 95.3%
Ratio IC50 (SW620/AD300 [2]): 3.57

CC(C)c1cc(=O)n2ncnc2[nH]1
viability at 4 µM (SW620/AD300 [1]): 95.7%
Ratio IC50 (SW620/AD300 [2]): 1.39

O=c1c2c([nH]c3ncnn13)COC2
viability at 4 µM (SW620/AD300 [1]): 98%
Ratio IC50 (SW620/AD300 [2]): 6.75

COC(=O)c1nc2[nH]c(C)cc(=O)n2n1
viability at 4 µM (SW620/AD300 [1]): 97.9%
Ratio IC50 (SW620/AD300 [2]): 4.5

COC(=O)c1nc2[nH]c3c(c(=O)n2n1)CCC3
viability at 4 µM (SW620/AD300 [1]): 94.7%
Ratio IC50 (SW620/AD300 [2]): 20.57

Cc1cc(=O)n2nc(SCc3ccc([N+](=O)[O-])cc3)nc2[nH]1
viability at 4 µM (SW620/AD300 [1]): 93.2%
Ratio IC50 (SW620/AD300 [2]): 7.08

CCCCCc1c(C)[nH]c2ncnn2c1=O
viability at 4 µM (SW620/AD300 [1]): 98.6%
Ratio IC50 (SW620/AD300 [2]): 1

O=c1cc(C(F)F)[nH]c2ncnn12
viability at 4 µM (SW620/AD300 [1]): 92.4%
Ratio IC50 (SW620/AD300 [2]): 1.06

Cc1cc(=O)n2nc(SCc3nc4ccccc4[nH]3)nc2[nH]1
viability at 4 µM (SW620/AD300 [1]): 96.8%
Ratio IC50 (SW620/AD300 [2]): 44.54

O=c1c2c([nH]c3nc(SCc4csc5ccc(Cl)cc45)nn13)CCC2
viability at 4 µM (SW620/AD300 [1]): 98.8%
Ratio IC50 (SW620/AD300 [2]): 56.1

Cc1cc(=O)n2nc(SCc3ccc(Cl)c(F)c3)nc2[nH]1
viability at 4 µM (SW620/AD300 [1]): 97.6%
Ratio IC50 (SW620/AD300 [2]): 18

Cc1cc(=O)n2nc(SCc3nc4ccccc4s3)nc2[nH]1
viability at 4 µM (SW620/AD300 [1]): 97.2%
Ratio IC50 (SW620/AD300 [2]): 60.85

Cc1cc(=O)n2nc(SCc3cc(=O)oc4c3ccc3ccccc34)nc2[nH]1
viability at 4 µM (SW620/AD300 [1]): 97.1%
Ratio IC50 (SW620/AD300 [2]): 57.6

Cc1cc(=O)n2nc(SCc3ccccc3)nc2[nH]1
viability at 4 µM (SW620/AD300 [1]): 95%
Ratio IC50 (SW620/AD300 [2]): 10.8

O=c1c2c([nH]c3ncnn13)CCC2
viability at 4 µM (SW620/AD300 [1]): 96.2%
Ratio IC50 (SW620/AD300 [2]): 13.94

Cc1cc(=O)n2nc(SCc3ccc(C(F)(F)F)cc3)nc2[nH]1
viability at 4 µM (SW620/AD300 [1]): 97.6%
Ratio IC50 (SW620/AD300 [2]): 4.08

Cc1cc(=O)n2nc(SCC3CCCCC3)nc2[nH]1
viability at 4 µM (SW620/AD300 [1]): 92.6%
Ratio IC50 (SW620/AD300 [2]): 6

CCOC(=O)CCc1c(C)[nH]c2ncnn2c1=O
viability at 4 µM (SW620/AD300 [1]): 94.2%
Ratio IC50 (SW620/AD300 [2]): 1.03

Cc1[nH]c2ncnn2c(=O)c1C
viability at 4 µM (SW620/AD300 [1]): 93.8%
Ratio IC50 (SW620/AD300 [2]): 4.36

Cc1cc(=O)n2c(C#N)c(C#N)nc2[nH]1
viability at 4 µM (SW620/AD300 [1]): 97.5%
Ratio IC50 (SW620/AD300 [2]): 1.38

O=c1c2c([nH]c3nc(SCc4nc5ccccc5[nH]4)nn13)CCC2
viability at 4 µM (SW620/AD300 [1]): 94.7%
Ratio IC50 (SW620/AD300 [2]): 69.68

COc1ccc(CSc2nc3[nH]c(C)cc(=O)n3n2)cc1
viability at 4 µM (SW620/AD300 [1]): 93.6%
Ratio IC50 (SW620/AD300 [2]): 33.49

O=c1c2c([nH]c3nc(SCc4ccccc4)nn13)CCC2
viability at 4 µM (SW620/AD300 [1]): 94.7%
Ratio IC50 (SW620/AD300 [2]): 25.41

Cc1cc(=O)n2ncnc2[nH]1
viability at 4 µM (SW620/AD300 [1]): 97.6%
Ratio IC50 (SW620/AD300 [2]): 5.4

C#CCSc1nc2[nH]c(C)cc(=O)n2n1
viability at 4 µM (SW620/AD300 [1]): 97.2%
Ratio IC50 (SW620/AD300 [2]): 4.6

CCc1cc(=O)n2ncnc2[nH]1
viability at 4 µM (SW620/AD300 [1]): 95.9%
Ratio IC50 (SW620/AD300 [2]): 1.83

CC(=O)O[C@H]1C(=O)[C@@]2(C)[C@H]([C@H](OC(=O)c3ccccc3)[C@]3(O)C[C@H](OC(=O)[C@H](O)[C@@H](NC(=O)c4ccccc4)c4ccccc4)C(C)=C1C3(C)C)[C@]1(OC(C)=O)CO[C@@H]1C[C@@H]2O [PACLITAXEL]
IC50 (HEK293 [3]): 0.00208 µM
Ratio IC50 (SW-620 [4]): 1.03
IC50 (KB-C2): 2.09 µM
IC50 (HEK293 [5]): 0.106 µM
IC50 (SW-620 [6]): 0.00655 µM
IC50 (KB 3-1): 0.00432 µM
IC50 (SW620/AD300 [7]): 4.32 µM
